Consider 30 molecules from patent US20100292205A1, “Pyrimidone Compounds As GSK-3 Inhibitors” (PFIZER INC., priority 2006, published 2010).

T1 sequence (P49841 whole entry): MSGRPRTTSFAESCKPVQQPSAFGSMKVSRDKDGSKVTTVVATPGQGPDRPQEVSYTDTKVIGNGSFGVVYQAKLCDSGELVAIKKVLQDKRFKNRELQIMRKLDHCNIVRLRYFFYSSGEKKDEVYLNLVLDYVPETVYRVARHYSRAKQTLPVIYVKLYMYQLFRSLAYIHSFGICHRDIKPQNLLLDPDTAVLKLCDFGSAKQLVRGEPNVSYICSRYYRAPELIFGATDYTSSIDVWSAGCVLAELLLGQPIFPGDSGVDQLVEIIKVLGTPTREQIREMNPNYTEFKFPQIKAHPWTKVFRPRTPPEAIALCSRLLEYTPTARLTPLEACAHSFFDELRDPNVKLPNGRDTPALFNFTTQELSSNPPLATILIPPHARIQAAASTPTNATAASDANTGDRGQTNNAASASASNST

One assay has as its target T1, Recombinant human GSK3β (Homo sapiens, UniProt P49841).
T1 construct: His-tag; made in house; host or cells: Sf9 insect cells / baculovirus
As to the kind of experiment: GSK-3β (Glycogen Synthase Kinase) cell free enzyme assay. The assay is classed as biochemical. The settings on record: 1 μM; Examples 157-199; read-out: Percent inhibition at 1 μM. The method, boiled down:
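Recombinant human GSK3β, expressed in SF9/baculovirus cells and His-tag purified on Ni-NTA Superflow, was preincubated with test agent for 30 minutes at room temperature. Substrate mix was then added to start the reaction in 8 mM MOPS (pH 7.0), 10 mM magnesium acetate, 0.2 mM EDTA, 1 mM DTT, 2 uM cold ATP, 0.025 uCi/well [33P]ATP (120 uL) and 1.0 uM biotinylated peptide. Reactions ran at RT for 60 min.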
In general, inhibition refers to the relative decrease from the control value, in per cent. With `CCN(c1nc(-c2ccncc2)cc(=O)n1C)C1CCCN(S(=O)(=O)c2ccccc2)CC1` (stereo not drawn) [Example 186, 2-{Ethyl[1-(phenylsulfonyl)azepan-4-yl]amino}-3-methyl-6-pyridin-4-ylpyrimidin-4(3H)-one], the inhibition at 1 µM worked out at 101%.

In the case of `Cn1c(NC2CCN(S(=O)(=O)c3ccccc3)CC2)nc(-c2ccncc2)cc1=O` [Example 175, 3-Methyl-2-{[1-(phenylsulfonyl)piperidin-4-yl]amino}-6-pyridin-4-ylpyrimidin-4(3H)-one], the inhibition at 1 µM was 49%.

On to `CN(c1nc(-c2ccncc2)cc(=O)n1C)[C@H]1CC[C@H]2N(S(=O)(=O)c3ccccc3)CC[C@@]2(C)C1` [Example 178, 3-Methyl-2-{methyl[(3a,S5,S7,aR)-3a-methyl-1-(phenylsulfonyl)octahydro-1H-indol-5-yl]amino}-6-pyridin-4-ylpyrimidin-4(3H)-one], for which the inhibition at 1 µM came out at 100%.

As for `CN(c1nc(-c2ccncc2)cc(=O)n1C)C1CCN(S(=O)(=O)c2ccccc2)C1` (stereo not drawn) [Example 180, 3-Methyl-2-{methyl[1-(phenylsulfonyl)pyrrolidin-3-yl]amino}-6-pyridin-4-ylpyrimidin-4(3H)-one], the inhibition at 1 µM turned out to be 93%.

Turning to `Cn1c(N[C@H]2CN(S(C)(=O)=O)C[C@@H]2F)nc(-c2ccncc2)cc1=O` [Example 158, 2-{[(3S,4S)-4-Fluoro-1-(methylsulfonyl)pyrrolidin-3-yl]amino}-3-methyl-6-pyridin-4-ylpyrimidin-4(3H)-one], the inhibition at 1 µM turned out to be 74%.

Still in this assay, the particulars now being: 1 μM; Examples 201-221; read-out: Percent inhibition at 1 μM.
Consider `CCN(c1nc(-c2ccncc2)cc(=O)n1C)C1CCN(C(=O)OC)CC1` [Example 217, Methyl 4-[ethyl(1-methyl-6-oxo-4-pyridin-4-yl-16-dihydropyrimidin-2-yl)amino]piperidine-1-carboxylate], for which the inhibition at 1 µM is 84%.

Turning to `COC(=O)N1CCC(Nc2nc(-c3ccncc3)cc(=O)n2C)C1` (stereo not drawn) [Example 204, Methyl 3-[(1-methyl-6-oxo-4-pyridin-4-yl-16-dihydropyrimidin-2-yl)amino]pyrrolidine-1-carboxylate], the inhibition at 1 µM was 82%.

The same assay, now with this note: 1 μM; Examples 236-262; read-out: Percent inhibition at 1 μM.
On to `CCN(c1nc(-c2ccncc2)cc(=O)n1C)C1CCN(C)CC1` [Example 248, 2-[Ethyl(1-methylpiperidin-4-yl)amino]-3-methyl-6-pyridin-4-ylpyrimidin-4(3H)-one], for which the inhibition at 1 µM amounted to 39%.

The same assay, now with this note: 1 μM; GSK-3β cell free enzyme assay; Examples 42-60; read-out: Percent inhibition at 1 μM.
As to `CC(=O)N1CCC(N(C)c2nc(-c3ccncc3)cc(=O)n2C)C1` (stereo not drawn) [Example 52, 2-[(1-Acetylpyrrolidin-3-yl)(methyl)amino]-3-methyl-6-pyridin-4-ylpyrimidin-4(3H)-one], the inhibition at 1 µM worked out at 51%.

As for `CC(=O)N1CCC[C@@H]1CNc1nc(-c2ccncc2)cc(=O)n1C` [Example 58, 2-({[(2R)-1-Acetylpyrrolidin-2-yl]methyl}amino)-3-methyl-6-pyridin-4-ylpyrimidin-4(3H)-one], the inhibition at 1 µM was 64%.

Staying with this assay, now noted: cell free enzyme assay; Examples 1-35.
Usually IC50 stands for the concentration that inhibits the measured activity by half. As to `Cn1c(NCC2CCN(C(=O)OC(C)(C)C)C2)nc(-c2ccncc2)cc1=O` (stereo not drawn) [Example 34, tert-butyl 3-{[(1-Methyl-6-oxo-4-pyridin-4-yl-1,6-dihydropyrimidin-2-yl)amino]methyl} pyrrolidine-1-carboxylate], the half-inhibitory concentration (IC50) was determined as 113 nM.

As for `Cn1c(NC2(c3cccc(C(C)(C)C)c3)CCOCC2)nc(-c2ccncc2)cc1=O` [Example 27, 2-{[4-(3-tert-Butylphenyl)tetra-hydro-2H-pyran-4-yl]amino}-3-methyl-6-pyridin-4-ylpyrimidin-4(3H)-one], the 50% inhibitory concentration (IC50) was found to be 12 nM.

In the case of `Cn1c(NCCc2nc(-c3ccccc3)cs2)nc(-c2ccncc2)cc1=O` [Example 29, 3-Methyl-2-{[2-(4-phenyl-1,3-thiazol-2-yl)ethyl]amino}-6-pyridin-4-ylpyrimidin-4(3H)-one], the IC50 came to 16 nM.

The assay is the same for the next values; noted with them: cell free enzyme assay; Examples 62-155.
For the molecule `CN(c1nc(-c2ccncc2)cc(=O)n1C)C1CCN(C(=O)c2ccccc2)C1` (stereo not drawn) [Example 70, 2-[(1-Benzoylpyrrolidin-3-yl)(methyl)amino]-3-methyl-6-pyridin-4-ylpyrimidin-4(3H)-one], the concentration for half-maximal inhibition (IC50) is 170 nM.

In the case of `CN(c1nc(-c2ccncc2F)cc(=O)n1C)[C@H]1[C@@H]2CN(C(=O)C3CC=CCC3)C[C@@H]21` (stereo partly drawn) [Example 140, 2-{[(1R,5S,6s)-3-(Cyclohex-3-en-1-ylcarbonyl)-3-azabicyclo[3.1.0]hex-6-yl](methyl)amino}-6-(3-fluoropyridin-4-yl)-3-methylpyrimidin-4(3H)-one], the concentration for half-maximal inhibition (IC50) worked out at 8.72 nM.

On to `CCC(CC)C(=O)N1C[C@@H]2[C@H](C1)[C@H]2N(C)c1nc(-c2ccncc2F)cc(=O)n1C` [Example 127, 2-{[(1R,5S,6s)-3-(2-Ethylbutanoyl)-3-azabicyclo[3.1.0]hex-6-yl](methyl)amino}-6-(3-fluoropyridin-4-yl)-3-methylpyrimidin-4(3H)-one], for which the half-inhibitory concentration (IC50) is 4.41 nM.

Turning to `CN(c1nc(-c2ccncc2F)cc(=O)n1C)[C@H]1[C@@H]2CN(C(=O)c3cc(F)ccc3F)C[C@@H]21` [Example 130, 2-{[(1R,5S,6s)-3-(2,5-Difluorobenzoyl)-3-azabicyclo[3.1.0]hex-6-yl](methyl)amino}-6-(3-fluoropyridin-4-yl)-3-methylpyrimidin-4(3H)-one], the 50% inhibitory concentration (IC50) is 1.69 nM.

With `Cn1c(N[C@@H]2CN(C(=O)c3ccccc3)C[C@@H]2F)nc(-c2ccncc2)cc1=O` [Example 68, 2-{[(3R,4S)-1-Benzoyl-4-fluoropyrrolidin-3-yl]amino}-3-methyl-6-pyridin-4-ylpyrimidin-4(3H)-one], the IC50 turned out to be 56 nM.

In the case of `CSCCC(=O)N1C[C@@H]2[C@H](C1)[C@H]2N(C)c1nc(-c2ccncc2F)cc(=O)n1C` [Example 102, 6-(3-Fluoropyridin-4-yl)-3-methyl-2-(methyl{(1R,5S,6s)-3-[3-(methylthio)propanoyl]-3-azabicyclo[3.1.0]hex-6-yl}amino)pyrimidin-4(3H)-one], the IC50 was 16 nM.

Consider `CN(c1nc(-c2ccncc2)cc(=O)n1C)C1CCN(C(=O)Cc2ccccc2)C1` (stereo not drawn) [Example 90, 3-Methyl-2-{methyl[1-(phenylacetyl)pyrrolidin-3-yl]amino}-6-pyridin-4-ylpyrimidin-4(3H)-one], for which the IC50 worked out at 133 nM.

As for `CN(c1nc(-c2ccncc2F)cc(=O)n1C)[C@H]1[C@@H]2CN(C(=O)c3cccc(Cl)n3)C[C@@H]21` [Example 96, 2-[{(1R,5S,6s)-3-[(6-Chloropyridin-2-yl)carbonyl]-3-azabicyclo[3.1.0]hex-6-yl}(methyl)amino]-6-(3-fluoropyridin-4-yl)-3-methylpyrimidin-4(3H)-one], the IC50 amounted to 3.92 nM.

On to `CN(c1nc(-c2ccncc2F)cc(=O)n1C)[C@H]1[C@@H]2CN(C(=O)c3c(Cl)cccc3Cl)C[C@@H]21` [Example 149, 2-{[(1R,5S,6s)-3-(2,6-Dichlorobenzoyl)-3-azabicyclo[3.1.0]hex-6-yl](methyl)amino}-6-(3-fluoropyridin-4-yl)-3-methylpyrimidin-4(3H)-one], for which the half-inhibitory concentration (IC50) stood at 3.81 nM.

As for `CC(C)C(=O)N1C[C@@H]2[C@H](C1)[C@H]2N(C)c1nc(-c2ccncc2F)cc(=O)n1C` [Example 114, 6-(3-Fluoropyridin-4-yl)-2-{[(1R,5S,6s)-3-isobutyryl-3-azabicyclo[3.1.0]hex-6-yl](methyl)amino}-3-methylpyrimidin-4(3H)-one], the half-maximal inhibitory concentration (IC50) came to 15.3 nM.

Turning to `CCN(c1nc(-c2ccncc2)cc(=O)n1C)C1CCCN(C(=O)Cc2ccccc2)C1` (stereo not drawn) [Example 91, 2-{Ethyl[1-(phenylacetyl)piperidin-3-yl]amino}-3-methyl-6-pyridin-4-ylpyrimidin-4(3H)-one], the concentration for half-maximal inhibition (IC50) is 147 nM.

Consider `CN(c1nc(-c2ccncc2)cc(=O)n1C)C1CCCN(C(=O)Cc2ccccc2)CC1` (stereo not drawn) [Example 88, 3-Methyl-2-{methyl[1-(phenylacetyl)azepan-4-yl]amino}-6-pyridin-4-ylpyrimidin-4(3H)-one], for which the IC50 came to 102 nM.

For the molecule `CCN(c1nc(-c2ccncc2)cc(=O)n1C)C1CCCN(C(=O)Cc2ccccc2)CC1` (stereo not drawn) [Example 89, 2-{Ethyl[1-(phenylacetyl)azepan-4-yl]amino}-3-methyl-6-pyridin-4-ylpyrimidin-4(3H)-one], the 50% inhibitory concentration (IC50) worked out at 64.6 nM.

Staying with this assay, now noted: cell free enzyme assay; Examples 222-234.
As to `COC(=O)N1CCC[C@@H](Nc2nc(-c3ccncn3)cc(=O)n2C)C1` [Example 228, Methyl (3R)-3-[(1-methyl-6-oxo-1,6-dihydro-4,4′-bipyrimidin-2-yl)amino]piperidine-1-carboxylate], the IC50 was found to be 0.994 nM.

Staying with this assay, now noted: cell free enzyme assay; Examples 265-291.
For the molecule `CN(c1nc(-c2ccncc2F)cc(=O)n1C)[C@H]1[C@@H]2CN(c3nnnn3C)C[C@@H]21` [Example 279, 6-(3-Fluoropyridin-4-yl)-3-methyl-2-{methyl[(1R,5S,6s)-3-(1-methyl-1H-tetrazol-5-yl)-3-azabicyclo[3.1.0]hex-6-yl]amino}pyrimidin-4(3H)-one], the IC50 was 58.6 nM.

Regarding `CN(c1nc(-c2ccncc2F)cc(=O)n1C)[C@H]1[C@@H]2CN(c3nnnn3-c3cccc(OC(F)(F)F)c3)C[C@@H]21` [Example 291, 6-(3-Fluoropyridin-4-yl)-3-methyl-2-{methyl[(1R,5S,6s)-3-{1-[3-(trifluoromethoxy)phenyl]-1H-tetrazol-5-yl}-3-azabicyclo[3.1.0]hex-6-yl]amino}pyrimidin-4(3H)-one], the IC50 worked out at 5.99 nM.

Consider `CCOc1cccc(-n2nnnc2N2C[C@@H]3[C@H](C2)[C@H]3N(C)c2nc(-c3ccncc3F)cc(=O)n2C)c1` [Example 286, 2-[{(1R,5S,6s)-3-[1-(3-Ethoxyphenyl)-1H-tetrazol-5-yl]-3-azabicyclo[3.1.0]hex-6-yl}(methyl)amino]-6-(3-fluoropyridin-4-yl)-3-methylpyrimidin-4(3H)-one], for which the concentration for half-maximal inhibition (IC50) is 3.2 nM.
